Experimental findings from ChEMBL document CHEMBL4392850, “Cu-mediated synthesis of differentially substituted diazepines as AChE inhibitors; validation through molecular docking and Lipinski's filter to develop novel anti-neurodegenerative drugs” (Bioorg Med Chem Lett, 2019) are described below.

For test [1], the target named is T1, Acetylcholinesterase (Homo sapiens, UniProt P22303). Put plainly: Inhibition of AChE in erythrocytes (unknown origin) pre-incubated for 20 mins before acetylthiocholine substrate addition and measured over 30 mins by DTNB dye based spectrophotometry. Type of test: cell-based.
The nature of test [2]: Antioxidant activity assessed as DPPH radical scavenging activity incubated for 15 to 20 mins by UV-visible spectrometry. In kind it is functional.
In test [3] the target is T1, Acetylcholinesterase. Put plainly: Inhibition of AChE in erythrocytes (unknown origin) pre-incubated for 20 mins before acetylthiocholine substrate addition and measured over 30 mins by DTNB dye based spectrophotometry relative to untreated control. Type of test: cell-based.
Test [4] is described as follows: Antioxidant activity assessed as DPPH radical scavenging activity incubated for 15 to 20 mins by UV-visible spectrometry relative to untreated control. Type of test: functional.

T1 sequence (P22303 whole entry): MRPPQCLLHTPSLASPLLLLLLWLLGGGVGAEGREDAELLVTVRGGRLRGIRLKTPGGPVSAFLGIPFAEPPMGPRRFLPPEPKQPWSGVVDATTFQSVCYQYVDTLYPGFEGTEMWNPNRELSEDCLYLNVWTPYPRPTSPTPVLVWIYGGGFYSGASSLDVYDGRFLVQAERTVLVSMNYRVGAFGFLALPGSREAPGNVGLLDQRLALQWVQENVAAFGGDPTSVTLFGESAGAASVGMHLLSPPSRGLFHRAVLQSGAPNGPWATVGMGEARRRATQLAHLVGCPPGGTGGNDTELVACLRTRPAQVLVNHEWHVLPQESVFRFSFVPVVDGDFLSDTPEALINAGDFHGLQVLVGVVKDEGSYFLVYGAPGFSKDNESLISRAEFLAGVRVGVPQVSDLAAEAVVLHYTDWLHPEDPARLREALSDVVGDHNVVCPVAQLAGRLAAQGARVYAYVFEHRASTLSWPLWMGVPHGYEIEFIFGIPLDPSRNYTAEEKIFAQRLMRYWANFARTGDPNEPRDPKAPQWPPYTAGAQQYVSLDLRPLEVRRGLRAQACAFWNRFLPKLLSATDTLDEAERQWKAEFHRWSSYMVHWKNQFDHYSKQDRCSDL

Turning to `Cc1ccc(-c2nnn3c2C2c4ccccc4CCN2Cc2ccccc2-3)cc1` (stereo unspecified), the inhibition result at Acetylcholinesterase [1] was “Dose-dependent effect”. Turning to `Brc1ccc(-c2nnn3c2C2c4ccccc4CCN2Cc2ccccc2-3)cc1` (stereo unspecified), the results for the IC50 (in test [2]; against Acetylcholinesterase [1]) were 86.2 nM and 250 nM, respectively. The inhibition entry is “Dose-dependent effect” on Acetylcholinesterase [1], less than 95% against Acetylcholinesterase [3] and 96.1% in test [4]. On to `c1ccc(-c2nnn3c2C2CCCCN2Cc2cc4c(cc2-3)OCO4)cc1` (stereo unspecified), for which the IC50 in test [2] came to 94.8 nM. For the same molecule, the inhibition result at Acetylcholinesterase [1] is “Dose-dependent effect”; in test [4] it was 92.3%. For the molecule `c1ccc(-c2nnn3c2C2CCCN2Cc2cc4c(cc2-3)OCO4)cc1` (stereo unspecified), the inhibition result on Acetylcholinesterase [1] is “Dose-dependent effect”. For the molecule `c1ccc(-c2nnn3c2C2c4ccccc4CCN2Cc2cc4c(cc2-3)OCO4)cc1` (stereo unspecified), the inhibition result at Acetylcholinesterase [1] was “Dose-dependent effect”. As to `c1ccc(-c2nnn3c2C2c4ccccc4CCN2Cc2ccccc2-3)cc1` (stereo unspecified), the inhibition result on Acetylcholinesterase [1] is “Dose-dependent effect”. The same measure, in the same setting: next, `Fc1ccc(-c2nnn3c2C2c4ccccc4CCN2Cc2ccccc2-3)cc1` (stereo unspecified): “Dose-dependent effect”. For `O=C1O[C@H]([C@@H](O)CO)C(O)=C1O` [ASCORBIC ACID], in test [2], the IC50 worked out at 1250 nM. Further, in test [4], the inhibition was determined as 80.2%. On to `Cn1c(=O)c2c(ncn2C)n(C)c1=O`, for which, on Acetylcholinesterase [1], the inhibition result is “Dose-dependent effect”.
